# Reference: article PMC6199744, “Development of Chemical Proteomics for the Folateome and Analysis of the Kinetoplastid Folateome” (ACS Infectious Diseases, 2018)
# Like-named read-outs stand apart in the source and are kept apart here.
# Experiments:
# Format in all cases: binding
# [1] = target: T1, HeLa cell extract proteins (Homo sapiens, UniProt Q13126)
# T1 construct: endogenous in cells; host or cells: HeLa cell extract
# T1 sequence (Q13126 1-283): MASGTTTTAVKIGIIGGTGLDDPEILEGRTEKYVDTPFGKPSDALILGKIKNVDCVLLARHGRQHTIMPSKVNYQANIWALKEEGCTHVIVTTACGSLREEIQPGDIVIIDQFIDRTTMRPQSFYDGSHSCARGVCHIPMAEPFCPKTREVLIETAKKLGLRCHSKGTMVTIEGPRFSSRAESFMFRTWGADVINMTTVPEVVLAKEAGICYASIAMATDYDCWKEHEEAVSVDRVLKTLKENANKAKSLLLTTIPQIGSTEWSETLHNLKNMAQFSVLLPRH
# [2] = target: T2, HeLa cell extract proteins (Homo sapiens, UniProt Q5SRE5)
# T2 construct: endogenous in cells; host or cells: HeLa cell extract
# [3] = target: T3, HeLa cell extract proteins (Homo sapiens, UniProt P61619)
# T3 construct: endogenous in cells; host or cells: HeLa cell extract
# [4] = target: T4, HeLa cell extract proteins (Homo sapiens, UniProt P30876)
# T4 construct: endogenous in cells; host or cells: HeLa cell extract
# [5] = target: T5, HeLa cell extract proteins (Homo sapiens, UniProt P00367)
# T5 construct: endogenous in cells; host or cells: HeLa cell extract
# [6] = target: T6, HeLa cell extract proteins (Homo sapiens, UniProt Q01650)
# T6 construct: endogenous in cells; host or cells: HeLa cell extract
# [7] = target: T7, HeLa cell extract proteins (Homo sapiens, UniProt Q9NR09)
# T7 construct: endogenous in cells; host or cells: HeLa cell extract
# [8] = target: T8, HeLa cell extract proteins (Homo sapiens, UniProt Q9Y6K9)
# T8 construct: endogenous in cells; host or cells: HeLa cell extract
# [9] = target: T9, HeLa cell extract proteins (Homo sapiens, UniProt P46940)
# T9 construct: endogenous in cells; host or cells: HeLa cell extract
# [10] = target: T10, HeLa cell extract proteins (Homo sapiens, UniProt Q7L1Q6)
# T10 construct: endogenous in cells; host or cells: HeLa cell extract
# T10 sequence (Q7L1Q6 1-419): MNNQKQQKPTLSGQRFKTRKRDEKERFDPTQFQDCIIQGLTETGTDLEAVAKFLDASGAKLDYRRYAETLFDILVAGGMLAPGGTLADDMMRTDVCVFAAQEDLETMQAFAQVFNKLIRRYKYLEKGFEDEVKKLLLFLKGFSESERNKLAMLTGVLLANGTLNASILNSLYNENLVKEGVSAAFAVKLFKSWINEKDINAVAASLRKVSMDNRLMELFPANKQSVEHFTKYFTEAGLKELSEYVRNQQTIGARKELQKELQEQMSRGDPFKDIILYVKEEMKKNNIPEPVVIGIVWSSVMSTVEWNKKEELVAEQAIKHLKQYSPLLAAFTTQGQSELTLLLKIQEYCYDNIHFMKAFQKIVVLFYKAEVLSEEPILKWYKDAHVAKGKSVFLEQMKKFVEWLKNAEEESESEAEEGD
# [11] = target: T11, HeLa cell extract proteins (Homo sapiens, UniProt O60701)
# T11 construct: endogenous in cells; host or cells: HeLa cell extract
# T11 sequence (O60701 1-494): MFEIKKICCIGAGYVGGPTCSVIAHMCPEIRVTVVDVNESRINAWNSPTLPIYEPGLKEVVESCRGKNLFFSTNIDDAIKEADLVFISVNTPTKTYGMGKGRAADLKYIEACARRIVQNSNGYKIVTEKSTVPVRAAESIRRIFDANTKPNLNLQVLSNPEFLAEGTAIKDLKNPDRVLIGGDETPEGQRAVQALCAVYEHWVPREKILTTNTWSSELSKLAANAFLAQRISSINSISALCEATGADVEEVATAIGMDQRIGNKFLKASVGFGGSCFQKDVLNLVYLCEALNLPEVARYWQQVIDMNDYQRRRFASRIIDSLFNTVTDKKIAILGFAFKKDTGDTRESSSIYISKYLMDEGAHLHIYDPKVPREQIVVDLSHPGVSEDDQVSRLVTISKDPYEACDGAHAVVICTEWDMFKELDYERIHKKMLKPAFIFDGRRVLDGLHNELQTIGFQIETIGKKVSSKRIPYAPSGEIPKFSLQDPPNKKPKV
# [12] = target: T12, HeLa cell extract proteins (Homo sapiens, UniProt P24534)
# T12 construct: endogenous in cells; host or cells: HeLa cell extract
# T12 sequence (P24534 1-225): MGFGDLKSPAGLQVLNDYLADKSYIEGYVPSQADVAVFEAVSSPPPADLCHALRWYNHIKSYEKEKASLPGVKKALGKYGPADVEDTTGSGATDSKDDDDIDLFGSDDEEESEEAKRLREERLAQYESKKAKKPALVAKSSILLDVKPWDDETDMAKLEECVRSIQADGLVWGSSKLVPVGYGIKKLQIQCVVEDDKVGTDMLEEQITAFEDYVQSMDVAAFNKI
# [13] = target: T13, HeLa cell extract proteins (Homo sapiens, UniProt Q9NQR4)
# T13 construct: endogenous in cells; host or cells: HeLa cell extract
# T13 sequence (Q9NQR4 1-276): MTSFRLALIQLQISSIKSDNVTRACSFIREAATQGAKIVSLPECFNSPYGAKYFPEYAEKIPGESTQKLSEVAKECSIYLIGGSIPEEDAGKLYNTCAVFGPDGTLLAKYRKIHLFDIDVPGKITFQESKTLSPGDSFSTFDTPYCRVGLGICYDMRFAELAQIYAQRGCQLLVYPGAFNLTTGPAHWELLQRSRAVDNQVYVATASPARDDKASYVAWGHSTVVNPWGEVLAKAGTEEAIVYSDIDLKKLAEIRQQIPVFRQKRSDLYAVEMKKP
# [14] = target: T14, HeLa cell extract proteins (Homo sapiens, UniProt P54819)
# T14 construct: endogenous in cells; host or cells: HeLa cell extract
# [15] = target: T15, HeLa cell extract proteins (Homo sapiens, UniProt P42356)
# T15 construct: endogenous in cells; host or cells: HeLa cell extract
# T2 sequence (Q5SRE5 whole entry): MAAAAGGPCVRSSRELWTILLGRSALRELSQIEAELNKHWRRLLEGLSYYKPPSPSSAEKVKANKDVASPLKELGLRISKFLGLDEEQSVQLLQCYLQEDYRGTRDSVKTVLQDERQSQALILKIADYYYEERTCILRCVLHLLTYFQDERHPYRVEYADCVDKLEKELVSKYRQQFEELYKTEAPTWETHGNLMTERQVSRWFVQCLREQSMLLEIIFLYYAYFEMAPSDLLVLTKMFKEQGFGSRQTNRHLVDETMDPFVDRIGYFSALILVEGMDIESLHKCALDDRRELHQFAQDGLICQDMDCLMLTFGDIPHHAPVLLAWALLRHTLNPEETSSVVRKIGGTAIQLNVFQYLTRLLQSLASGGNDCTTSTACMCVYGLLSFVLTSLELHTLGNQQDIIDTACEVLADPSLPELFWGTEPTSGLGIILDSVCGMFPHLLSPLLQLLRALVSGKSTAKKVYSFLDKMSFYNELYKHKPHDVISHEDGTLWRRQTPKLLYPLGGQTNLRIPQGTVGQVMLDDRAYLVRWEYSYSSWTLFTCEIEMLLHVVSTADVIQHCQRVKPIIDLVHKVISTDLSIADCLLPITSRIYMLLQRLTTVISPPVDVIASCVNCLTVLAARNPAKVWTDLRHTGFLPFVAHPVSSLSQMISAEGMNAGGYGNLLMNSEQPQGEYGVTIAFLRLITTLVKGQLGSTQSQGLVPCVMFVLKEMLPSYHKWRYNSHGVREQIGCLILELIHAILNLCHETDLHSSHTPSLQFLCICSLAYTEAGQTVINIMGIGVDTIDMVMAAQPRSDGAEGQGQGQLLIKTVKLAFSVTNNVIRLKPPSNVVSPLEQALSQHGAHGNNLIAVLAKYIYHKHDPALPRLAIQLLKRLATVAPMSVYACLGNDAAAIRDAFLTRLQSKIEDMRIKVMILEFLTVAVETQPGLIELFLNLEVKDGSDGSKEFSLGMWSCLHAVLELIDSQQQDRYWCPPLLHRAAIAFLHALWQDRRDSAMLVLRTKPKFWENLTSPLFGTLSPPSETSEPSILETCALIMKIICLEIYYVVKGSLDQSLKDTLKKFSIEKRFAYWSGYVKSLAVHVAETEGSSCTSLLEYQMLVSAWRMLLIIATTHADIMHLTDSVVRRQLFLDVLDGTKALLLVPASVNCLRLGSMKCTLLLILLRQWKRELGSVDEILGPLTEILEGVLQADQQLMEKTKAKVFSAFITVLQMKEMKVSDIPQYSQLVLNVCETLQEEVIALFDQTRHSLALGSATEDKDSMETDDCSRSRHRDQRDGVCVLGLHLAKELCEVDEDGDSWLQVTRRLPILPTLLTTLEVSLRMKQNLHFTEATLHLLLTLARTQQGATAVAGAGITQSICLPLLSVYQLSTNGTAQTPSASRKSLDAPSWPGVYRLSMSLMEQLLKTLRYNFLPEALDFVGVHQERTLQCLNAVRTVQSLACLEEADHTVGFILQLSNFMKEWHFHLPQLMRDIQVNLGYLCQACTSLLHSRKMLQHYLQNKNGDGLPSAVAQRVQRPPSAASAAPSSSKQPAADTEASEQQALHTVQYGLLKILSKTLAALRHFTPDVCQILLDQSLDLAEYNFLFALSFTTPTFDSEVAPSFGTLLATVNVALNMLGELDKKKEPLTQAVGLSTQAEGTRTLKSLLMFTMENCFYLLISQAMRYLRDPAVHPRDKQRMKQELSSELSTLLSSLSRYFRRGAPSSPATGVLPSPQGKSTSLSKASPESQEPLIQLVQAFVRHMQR
# T3 sequence (P61619 whole entry): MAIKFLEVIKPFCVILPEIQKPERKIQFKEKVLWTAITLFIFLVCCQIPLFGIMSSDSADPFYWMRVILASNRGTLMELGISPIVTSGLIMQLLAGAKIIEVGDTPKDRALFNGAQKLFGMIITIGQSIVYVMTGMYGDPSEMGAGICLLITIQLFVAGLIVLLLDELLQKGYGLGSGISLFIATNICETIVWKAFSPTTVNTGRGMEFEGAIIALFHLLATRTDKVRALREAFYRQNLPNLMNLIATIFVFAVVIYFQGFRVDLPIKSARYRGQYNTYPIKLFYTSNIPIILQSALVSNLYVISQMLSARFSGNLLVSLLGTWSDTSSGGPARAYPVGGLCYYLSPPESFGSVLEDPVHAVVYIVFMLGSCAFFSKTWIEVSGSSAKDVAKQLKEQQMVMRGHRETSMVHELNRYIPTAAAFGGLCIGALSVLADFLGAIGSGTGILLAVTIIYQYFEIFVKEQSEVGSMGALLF
# T6 sequence (Q01650 whole entry): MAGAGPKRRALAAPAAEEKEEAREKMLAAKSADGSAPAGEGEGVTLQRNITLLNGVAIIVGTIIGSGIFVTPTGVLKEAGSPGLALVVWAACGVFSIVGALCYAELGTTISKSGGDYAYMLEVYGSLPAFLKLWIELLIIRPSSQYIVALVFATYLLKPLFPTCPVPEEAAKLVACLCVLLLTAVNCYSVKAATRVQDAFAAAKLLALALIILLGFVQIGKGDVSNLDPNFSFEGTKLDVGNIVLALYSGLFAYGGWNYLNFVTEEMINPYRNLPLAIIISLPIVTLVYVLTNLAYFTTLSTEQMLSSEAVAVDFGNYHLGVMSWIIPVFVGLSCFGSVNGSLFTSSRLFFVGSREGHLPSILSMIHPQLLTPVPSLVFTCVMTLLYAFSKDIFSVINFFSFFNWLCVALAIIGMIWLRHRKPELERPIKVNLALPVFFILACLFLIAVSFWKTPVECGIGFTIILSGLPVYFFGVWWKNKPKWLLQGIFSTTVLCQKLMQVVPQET
# T8 sequence (Q9Y6K9 whole entry): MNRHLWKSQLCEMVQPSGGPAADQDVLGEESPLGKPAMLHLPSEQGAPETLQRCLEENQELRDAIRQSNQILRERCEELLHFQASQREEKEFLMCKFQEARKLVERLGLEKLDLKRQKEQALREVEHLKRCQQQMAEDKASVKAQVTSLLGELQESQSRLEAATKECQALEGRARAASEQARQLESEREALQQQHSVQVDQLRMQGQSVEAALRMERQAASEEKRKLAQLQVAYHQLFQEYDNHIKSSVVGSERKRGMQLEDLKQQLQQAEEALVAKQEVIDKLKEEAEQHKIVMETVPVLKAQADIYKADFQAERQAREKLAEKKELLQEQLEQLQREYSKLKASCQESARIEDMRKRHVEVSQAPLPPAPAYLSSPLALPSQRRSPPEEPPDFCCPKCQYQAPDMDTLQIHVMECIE
# T9 sequence (P46940 whole entry): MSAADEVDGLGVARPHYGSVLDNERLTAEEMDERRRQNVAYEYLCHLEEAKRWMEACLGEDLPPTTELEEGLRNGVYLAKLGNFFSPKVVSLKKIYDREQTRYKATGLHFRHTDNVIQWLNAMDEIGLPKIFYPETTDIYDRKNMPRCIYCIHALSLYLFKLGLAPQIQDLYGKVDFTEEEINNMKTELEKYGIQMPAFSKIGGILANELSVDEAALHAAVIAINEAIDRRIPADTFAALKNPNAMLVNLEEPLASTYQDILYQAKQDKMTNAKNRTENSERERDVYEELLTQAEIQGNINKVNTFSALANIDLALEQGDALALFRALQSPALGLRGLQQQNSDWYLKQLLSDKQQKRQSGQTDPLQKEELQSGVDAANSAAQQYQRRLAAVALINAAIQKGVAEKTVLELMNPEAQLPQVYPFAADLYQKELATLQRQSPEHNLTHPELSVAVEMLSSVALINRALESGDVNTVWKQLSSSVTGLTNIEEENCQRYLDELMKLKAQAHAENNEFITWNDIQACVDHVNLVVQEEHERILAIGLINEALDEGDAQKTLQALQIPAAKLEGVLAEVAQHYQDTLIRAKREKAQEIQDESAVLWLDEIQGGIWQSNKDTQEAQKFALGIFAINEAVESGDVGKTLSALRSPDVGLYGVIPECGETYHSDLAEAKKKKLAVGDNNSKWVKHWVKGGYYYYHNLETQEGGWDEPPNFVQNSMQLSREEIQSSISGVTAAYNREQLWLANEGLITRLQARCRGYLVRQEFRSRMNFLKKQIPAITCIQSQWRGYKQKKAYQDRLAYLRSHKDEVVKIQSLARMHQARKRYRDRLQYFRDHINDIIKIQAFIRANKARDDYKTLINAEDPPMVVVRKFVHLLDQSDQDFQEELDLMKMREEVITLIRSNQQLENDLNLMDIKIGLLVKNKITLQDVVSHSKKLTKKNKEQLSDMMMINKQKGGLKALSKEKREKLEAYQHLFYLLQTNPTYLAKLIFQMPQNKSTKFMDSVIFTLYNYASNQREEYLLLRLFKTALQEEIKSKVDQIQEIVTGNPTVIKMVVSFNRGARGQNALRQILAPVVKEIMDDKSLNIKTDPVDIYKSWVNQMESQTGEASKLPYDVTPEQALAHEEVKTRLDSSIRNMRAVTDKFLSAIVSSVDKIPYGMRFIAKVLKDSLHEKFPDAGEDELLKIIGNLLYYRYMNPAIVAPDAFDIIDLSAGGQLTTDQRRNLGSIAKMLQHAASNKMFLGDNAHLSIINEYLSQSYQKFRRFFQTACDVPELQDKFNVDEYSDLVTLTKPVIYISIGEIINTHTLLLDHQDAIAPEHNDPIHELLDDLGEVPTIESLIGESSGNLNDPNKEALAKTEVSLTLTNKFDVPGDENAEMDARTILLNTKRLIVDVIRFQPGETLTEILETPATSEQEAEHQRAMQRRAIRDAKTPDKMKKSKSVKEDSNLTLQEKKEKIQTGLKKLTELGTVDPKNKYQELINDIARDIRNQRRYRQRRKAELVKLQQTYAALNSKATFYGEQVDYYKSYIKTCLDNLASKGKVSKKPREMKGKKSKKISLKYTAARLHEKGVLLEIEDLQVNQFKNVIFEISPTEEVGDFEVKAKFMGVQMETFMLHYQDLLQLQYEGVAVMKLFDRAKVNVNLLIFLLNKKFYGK
smiles,measurement,setting,value
Nc1nc2cccc(-c3ccccc3)c2n1Cc1ccc(Cl)c(Cl)c1 [compound 3],fold changes relative to vehicle control,"[1]; protein MTAP, HeLa",0.99
same,fold changes relative to vehicle control,"[2]; HeLa, protein NUP188",1.07
same,fold changes relative to vehicle control,"[3]; HeLa, protein SEC61A1",1
same,fold changes relative to vehicle control,"[4]; HeLa, protein POLR2B",0.98
same,fold changes relative to vehicle control,"[5]; protein GLUD1, HeLa",0.92
same,fold changes relative to vehicle control,"[6]; HeLa, protein SLC7A5",1.06
same,fold changes relative to vehicle control,"[7]; HeLa, protein BIRC6",1.12
same,fold changes relative to vehicle control,"[8]; captured protein IKBKG, HeLa",0.9
same,fold changes relative to vehicle control,"[9]; protein IQGAP1, HeLa",0.93
same,fold changes relative to vehicle control,"[10]; protein BZW1, HeLa",0.91
same,fold changes relative to vehicle control,"[11]; protein UGDH, HeLa",0.78
same,fold changes relative to vehicle control,"[12]; protein EEF1B2, HeLa",1.02
same,fold changes relative to vehicle control,"[13]; protein NIT2, HeLa",0.84
same,fold changes relative to vehicle control,"[14]; captured protein AK2, HeLa",0.91
same,fold changes relative to vehicle control,"[15]; captured protein PI4KA, HeLa",0.77
"Nc1nc2[nH]cc(CCc3ccc(C(=O)N[C@@H](CCC(=O)O)C(=O)O)cc3)c2c(=O)[nH]1 [PTX, pemetrexed]",fold changes relative to vehicle control,[1],0.98
same,fold changes relative to vehicle control,[2],1.17
same,fold changes relative to vehicle control,[3],0.98
same,fold changes relative to vehicle control,[4],0.89
same,fold changes relative to vehicle control,[5],1.01
same,fold changes relative to vehicle control,[6],0.8
same,fold changes relative to vehicle control,[7],1
same,fold changes relative to vehicle control,[8],1.02
same,fold changes relative to vehicle control,[9],1.08
same,fold changes relative to vehicle control,[10],1.09
same,fold changes relative to vehicle control,[11],1.21
same,fold changes relative to vehicle control,[12],1
same,fold changes relative to vehicle control,[13],0.89
same,fold changes relative to vehicle control,[14],0.86
same,fold changes relative to vehicle control,[15],0.73
"Nc1nc2c(c(=O)[nH]1)N(C=O)C(CNc1ccc(C(=O)N[C@@H](CCC(=O)O)C(=O)O)cc1)CN2 (stereo partly drawn) [LEU, leucovorin]",fold changes relative to vehicle control,"[1]; HeLa, captured protein MTAP",1.13
same,fold changes relative to vehicle control,"[2]; HeLa, captured protein NUP188",1.13
same,fold changes relative to vehicle control,"[3]; HeLa, protein SEC61A1",0.99
same,fold changes relative to vehicle control,"[4]; protein POLR2B, HeLa",0.8
same,fold changes relative to vehicle control,"[5]; HeLa, protein GLUD1",1.06
same,fold changes relative to vehicle control,"[6]; HeLa, captured protein SLC7A5",1.02
same,fold changes relative to vehicle control,"[7]; HeLa, protein BIRC6 (B[…] REPEAT-CONTAINING 6)",1.08
same,fold changes relative to vehicle control,"[8]; HeLa, protein IKBKG (INHIBITOR OF KAPPAB KINASE GAMMA)",0.98
same,fold changes relative to vehicle control,"[9]; HeLa, protein IQGAP1",1.02
same,fold changes relative to vehicle control,"[10]; HeLa, protein BZW1",1.01
same,fold changes relative to vehicle control,"[11]; HeLa, protein UGDH",1.16
same,fold changes relative to vehicle control,"[12]; protein EEF1B2, HeLa",0.84
same,fold changes relative to vehicle control,"[13]; HeLa, captured protein NIT2",1.04
same,fold changes relative to vehicle control,"[14]; protein AK2, HeLa",0.99
same,fold changes relative to vehicle control,"[15]; protein PI4KA, HeLa",0.82
